# Reference: ChEMBL document CHEMBL1221200, “Diarylquinolines target subunit c of mycobacterial ATP synthase” (Nat Chem Biol, 2007)
# Active and inactive are the calls of the source. The calls are words filed in the database; no cut-off is given here.
# Tests used:
# [1] = tested on: Mycobacterium tuberculosis; assay: Antimicrobial activity against wild-type Mycobacterium tuberculosis isolate BK12 expressing ATP synthase AtpE A63P mutant protein assessed as growth inhibition in early log-phase by 7H10 agar dilution method; format: functional, organism-based
# [2] = tested on: ATP synthase (Mycobacterium tuberculosis), P9WPU9+P9WPU5+P9WPU7+P9WPV5+P9WPS1+P9WPV1+P9WPV7+P9WPV3 [I66M]; assay: Inhibition of Mycobacterium tuberculosis isolate LV13 ATP synthase subunit c I66M mutant-mediated ATP synthesis after 24 hrs by luminometry
# [3] = tested on: ATP synthase (Mycobacterium tuberculosis), P9WPU9+P9WPU5+P9WPU7+P9WPV5+P9WPS1+P9WPV1+P9WPV7+P9WPV3 [A63P]; assay: Inhibition of Mycobacterium tuberculosis isolate BK12 ATP synthase subunit c A63P mutant-mediated ATP synthesis after 24 hrs by luminometry
# [4] = tested on: Mycobacterium tuberculosis; assay: Antimicrobial activity against wild-type Mycobacterium tuberculosis isolate LV13 expressing ATP synthase AtpE I66M mutant protein assessed as growth inhibition in early log-phase by 7H10 agar dilution method; format: functional, organism-based
# [5] = tested on: Mycobacterium tuberculosis; assay: Ratio of MIC for Mycobacterium tuberculosis H37Rv isolate BK12 expressing ATP synthase atpE A63P mutant protein to MIC for Mycobacterium tuberculosis H37Rv; format: functional
# [6] = tested on: Mycobacterium tuberculosis; assay: Antimicrobial activity against Mycobacterium tuberculosis H37Rv isolate BK12 expressing ATP synthase atpE A63P mutant protein by 7H9 broth dilution method; format: functional
# [7] = tested on: Mycobacterium tuberculosis; assay: Antimicrobial activity against Mycobacterium tuberculosis H37Rv isolate BK12 expressing ATP synthase atpE A63P mutant protein by 7H10 broth dilution method; format: functional
# [8] = tested on: Mycobacterium tuberculosis; assay: Antimicrobial activity against Mycobacterium tuberculosis H37Rv isolate LV13 expressing ATP synthase atpE I66M mutant protein by 7H10 broth dilution method; format: functional
# [9] = tested on: Mycobacterium tuberculosis; assay: Ratio of MIC for Mycobacterium tuberculosis H37Rv isolate LV13 expressing ATP synthase atpE I66M mutant protein to MIC for Mycobacterium tuberculosis H37Rv; format: functional
# [10] = tested on: Mycobacterium tuberculosis; assay: Antimicrobial activity against Mycobacterium tuberculosis H37Rv isolate LV13 expressing ATP synthase atpE I66M mutant protein by 7H9 broth dilution method; format: functional
Compound,Activity [1],inhibition [2],inhibition [3],Activity [4],Ratio [5],MIC [6],MIC [7],MIC [8],Ratio [9],MIC [10]
COc1nc2ccc(Br)cc2cc1[C@@H](c1ccccc1)[C@@](O)(CCN(C)C)c1cccc2ccccc12,Active,inactive,inactive,Active,–,–,–,–,–,–
COc1nc2ccc(Br)cc2cc1[C@@H](c1ccccc1)[C@@](O)(CCN(C)C)c1cccc2ccccc12 [BEDAQUILINE],–,–,–,–,>200,11 µg/mL,13 µg/mL,13 µg/mL,>200,11 µg/mL
